Results taken from patent US7678773B2, “Salts of avermectins substituted in the 4″-position and having pesticidal properties” (Merial Limited, priority 2001, dated 2010).
Where two headings read alike, the source gives them in different places.

Legend:
Type in all cases: in vivo
Spodoptera littoralis = assay: Example B1: Action against Spodoptera littoralis (sprayed soybean plants); conditions: 72 h, read-out: reduction in the pest population (% activity)
Experimental: Young soybean plants are sprayed with an aqueous emulsion spray mixture comprising 12.5 ppm of test compound and, after the spray-coating has dried, the plants are populated with 10 caterpillars of Spodoptera littoralis in the first stage and then placed in a plastics container. 3 days later, the percentage reduction in population and the percentage reduction in feeding damage (% activity) are determined by comparing the number of dead caterpillars and the feeding damage on the treated plants with that on untreated plants.

Plutella xylostella = assay: Example B4: Action against Plutella xylostella caterpillars (sprayed cabbage plants); conditions: 72 h, read-out: reduction in the pest population (% activity)
Experimental: Young cabbage plants are sprayed with an aqueous emulsion spray mixture comprising 12.5 ppm of test compound. After the spray-coating has dried, the cabbage plants are populated with 10 caterpillars of Plutella xylostella in the first stage and placed in a plastics container. Evaluation is made 3 days later. The percentage reduction in population and the percentage reduction in feeding damage (% activity) are determined by comparing the number of dead caterpillars and the feeding damage on the treated plants with that on the untreated plants.

Diabrotica balteata = assay: Example B6: Action against Diabrotica balteata (sprayed maize seedlings); conditions: 144 h, read-out: reduction in the pest population (% activity)
Experimental: Maize seedlings are sprayed with an aqueous emulsion spray mixture comprising 12.5 ppm of the test compound and, after the spray-coating has dried, the maize seedlings are populated with 10 Diabrotica balteata larvae in the second stage and then placed in a plastics container. 6 days later, the percentage reduction in population (% activity) is determined by comparing the number of dead larvae on the treated plants with that on untreated plants.

Tetranychus urticae = assay: Example B7: Action against Tetranychus urticae (sprayed bean plants); conditions: 144 h, read-out: reduction in the pest population (% activity)
Experimental: Young bean plants are populated with a mixed population of Tetranychus urticae and sprayed one day later with an aqueous emulsion spray mixture comprising 12.5 ppm of test compound. The plants are incubated for 6 days at 25° C. and subsequently evaluated. The percentage reduction in population (% activity) is determined by comparing the number of dead eggs, larvae and adults on the treated plants with that on untreated plants.

[1] = 12.5 ppm spray on young soybean plants, first-stage caterpillars, evaluated 3 days later vs untreated plants
[2] = 12.5 ppm spray on young cabbage plants, first-stage caterpillars, evaluated 3 days later
[3] = 12.5 ppm spray on maize seedlings, second-stage larvae, evaluated 6 days later
[4] = 12.5 ppm spray on young bean plants, mixed population, 6 days at 25° C.

Measured: inhibition at 12.5 ppm

CC(C)(C)c1ccc(C(=O)O)cc1 [B.71, 4-tert-butyl-benzoic acid]
> 80%: Spodoptera littoralis; [1] | Plutella xylostella; [2] | Diabrotica balteata; [3] | Tetranychus urticae; [4]

Cc1ccc(C(=O)O)cc1 [B.32, p-toluic acid]
> 80%: Spodoptera littoralis; [1] | Plutella xylostella; [2] | Diabrotica balteata; [3] | Tetranychus urticae; [4]

O=C(O)CCCOc1ccccc1 [B.70, 4-phenoxy-butyric acid]
> 80%: Spodoptera littoralis | Plutella xylostella | Diabrotica balteata | Tetranychus urticae

O=C(O)c1cccc(F)c1 [B.41, 3-fluoro-benzoic acid]
> 80%: Spodoptera littoralis; [1] | Plutella xylostella; [2] | Diabrotica balteata; [3] | Tetranychus urticae; [4]

O=C(O)c1ccccc1-c1ccccc1 [B.11, 2-phenyl-benzoic acid]
> 80%: Spodoptera littoralis; [1] | Plutella xylostella; [2] | Diabrotica balteata; [3] | Tetranychus urticae; [4]

O=C(O)c1ccc(O)cc1O [B.82, 2,4-dihydroxy-benzoic acid]
> 80%: Spodoptera littoralis; [1] | Plutella xylostella; [2] | Diabrotica balteata; [3] | Tetranychus urticae; [4]

Cc1ccc(C)c(C(=O)O)c1 [B.44, 2,5-dimethyl-benzoic acid]
> 80%: Spodoptera littoralis; [1] | Plutella xylostella; [2] | Diabrotica balteata; [3] | Tetranychus urticae; [4]
